According to the RepoRT retention time repository (doi:10.1038/s41586-021-03707-9):

Legend:
[1] = RP, Waters ACQUITY UPLC HSS C18, 100 × 2.1 mm, 1.7 µm, 40 °C, 0.35 mL/min, estimated dead time 0.63 min; A: water + 0.1% formic acid; B: methanol + 0.1% formic acid; gradient (min/%B) 0/0.5 4/70 4.5/98 5.4/98; settings: stereoisomer not certain
[2] = Waters ACQUITY UPLC BEH C18, 100 × 2.1 mm, 1.7 µm, 40 °C, 0.28 mL/min, estimated dead time 0.63 min; A: water + 6.5 mM ammonium hydroxide; B: methanol + 6.5 mM ammonium hydroxide; gradient (min/%B) 0/0.5 4/70 4.5/98 5.4/98; settings: stereoisomer not certain

Compound	LC retention time [1] [min]	LC retention time [2] [min]
OCCc1c[nH]c2ccccc12	4.22	4.36
CN1CC(=O)NC1=N	0.77	0.861
NCCc1c[nH]c2ccc(O)cc12	1.9	2.35
COc1cc(CCN)ccc1O	1.99	2.57
CC(=O)NCCCCN	0.91	1.29
CN(C)CCc1ccc(O)cc1	1.82	3.89
CC=C(C)C(=O)NCC(=O)O	2.9	2.16
NC(N)=NCCCC(=O)O	1.11	0.91
NCCCCC(=O)O	0.909	0.812
CCC(O)(CC)C(=O)O	3.56	1.31
CC1CNC(=O)NC1=O (stereo not given)	1.87	1.94
CCC(NC(=O)CCC(N)C(=O)O)C(=O)NCC(=O)O (stereo not given)	1.58	0.928

The remaining lines, values ahead:

LC retention time [1] [min]	LC retention time [2] [min]	Compound
2.29	2.34	Cc1cn(C2CC(O)C(CO)O2)c(=O)[nH]c1=O (stereo not given)
1.91	2.09	O=C(O)c1ccnc2ccccc12
1.56	1.31	Nc1ncnc2c1ncn2C1CC(O)C(COP(=O)(O)O)O1 (stereo not given)
0.799	0.859	OCC1OC(OC2C(CO)OC(O)(CO)C2O)C(O)C(O)C1O (stereo not given)
3.04	1.67	O=C(O)c1cc(=O)c2cccc(O)c2[nH]1
2.82	2.89	OCc1ccccc1OC1OC(CO)C(O)C(O)C1O (stereo not given)
1.58	1.77	NC(=O)c1ncn(C2OC(CO)C(O)C2O)c1N (stereo not given)
1.92	1.9	O=c1[nH]cnc2c1ncn2C1OC(CO)C(O)C1O (stereo not given)
2.41	0.852	Nc1ccc(C(=O)O)cc1
4.48	2.84	COc1ccc(O)c(C(=O)O)c1
2.87	1.51	O=C(O)C(O)Cc1ccc(O)cc1 (stereo not given)
3.42	1.89	COc1cc(CC(=O)O)ccc1O
1.68	2.11	Nc1ncnc2c1ncn2C1OC(CO)C2OP(=O)(O)OC21 (stereo not given)
2.85	3.51	CSCC1OC(n2cnc3c(N)ncnc32)C(O)C1O (stereo not given)
3.64	0.823	O=C(O)C(O)c1ccc(O)cc1 (stereo not given)
4.09	3.05	CC(=O)c1ccc(O)cc1O
2.59	0.832	O=C(O)c1ccc(O)c(O)c1O
5.29	3.44	Cc1cccc(C(=O)O)c1O
